Measurements published in patent US12227495B2, “Herbicidal compounds” (SYNGENTA CROP PROTECTION AG, priority 2018, dated 2025).

Tests used:
Format in all cases: in vivo
Settings in all cases: evaluated after 13 days
Lolium perenne (LOLPE) [1] = assay: Post-emergence herbicide test, glasshouse, percentage damage
Outline: (§1)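 Spray: acetone/water (50:50) with 0.5% Tween 20, 500 g/ha unless stated; pre-emergence 1 d after sowing, post-emergence at 8 d. Glasshouse 24/16 °C, 14 h light, 65% RH, watered twice daily. Read at 13 d, % damage as 1-5 score.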

[2] = system: Amaranthus retoflexus (AMARE); assay: as above
Outline: as §1

Setaria faberi (SETFA) [3] = assay: as above
Outline: as §1

[4] = system: Echinochloa crus-galli (ECHCG); assay: as above
Outline: as §1

[5] = system: Ipomoea hederacea (IPOHE); assay: as above
Outline: as §1

Solanum nigrum (SOLNI) [6] = assay: as above
Outline: as §1

Lolium perenne (LOLPE) [7] = assay: Pre-emergence herbicide test, glasshouse, percentage damage
Outline: as §1

[8] = system: Amaranthus retoflexus (AMARE); assay: as above
Outline: as §1

Setaria faberi (SETFA) [9] = assay: as above
Outline: as §1

[10] = system: Echinochloa crus-galli (ECHCG); assay: as above
Outline: as §1

[11] = system: Ipomoea hederacea (IPOHE); assay: as above
Outline: as §1

Solanum nigrum (SOLNI) [12] = assay: as above
Outline: as §1

SMILES	percentage damage caused to the plant, LOLPE (Lolium perenne (LOLPE) [1]; 1000 g/ha)	percentage damage caused to the plant, AMARE ([2]; 1000 g/ha)	percentage damage caused to the plant, SETFA (Setaria faberi (SETFA) [3]; 1000 g/ha)	percentage damage caused to the plant, ECHCG ([4]; 1000 g/ha)	percentage damage caused to the plant, IPOHE ([5]; 1000 g/ha)	percentage damage caused to the plant, SOLNI (Solanum nigrum (SOLNI) [6]; 1000 g/ha)	Pre-emergence Test LOLPE percentage damage (five point scale) (Lolium perenne (LOLPE) [7]; rate 1000 g/ha)	Pre-emergence Test AMARE percentage damage (five point scale) ([8]; rate 1000 g/ha)	Pre-emergence Test SETFA percentage damage (five point scale) (Setaria faberi (SETFA) [9]; rate 1000 g/ha)	Pre-emergence Test ECHCG percentage damage (five point scale) ([10]; rate 1000 g/ha)	Pre-emergence Test IPOHE percentage damage (five point scale) ([11]; rate 1000 g/ha)	Pre-emergence Test SOLNI percentage damage (five point scale) (Solanum nigrum (SOLNI) [12]; rate 1000 g/ha)	other results
Fc1cc(Cl)cnc1Oc1cccc(F)c1-c1cc(C(F)F)no1 [Compound A1, 5-[2-[(5-CHLORO-3-FLUORO-2-PYRIDYL)OXY]-6-FLUORO-PHENYL]-3-(DIFLUOROMETHYL)ISOXAZOLE]													percentage damage caused to the plant, LOLPE (Lolium perenne (LOLPE) [1]; 500 g/ha): 5 (5=81-100%); percentage damage caused to the plant, AMARE ([2]; 500 g/ha): 5 (5=81-100%); percentage damage caused to the plant, SETFA (Setaria faberi (SETFA) [3]; 500 g/ha): 5 (5=81-100%); percentage damage caused to the plant, ECHCG ([4]; 500 g/ha): 5 (5=81-100%); percentage damage caused to the plant, IPOHE ([5]; 500 g/ha): 5 (5=81-100%); percentage damage caused to the plant, SOLNI (Solanum nigrum (SOLNI) [6]; 500 g/ha): 5 (5=81-100%); Pre-emergence Test LOLPE percentage damage (five point scale) (Lolium perenne (LOLPE) [7]; rate 500 g/ha): 5 (5=81-100%); Pre-emergence Test AMARE percentage damage (five point scale) ([8]; rate 500 g/ha): 5 (5=81-100%); Pre-emergence Test SETFA percentage damage (five point scale) (Setaria faberi (SETFA) [9]; rate 500 g/ha): 5 (5=81-100%); Pre-emergence Test ECHCG percentage damage (five point scale) ([10]; rate 500 g/ha): 5 (5=81-100%); Pre-emergence Test IPOHE percentage damage (five point scale) ([11]; rate 500 g/ha): 5 (5=81-100%); Pre-emergence Test SOLNI percentage damage (five point scale) (Solanum nigrum (SOLNI) [12]; rate 500 g/ha): 5 (5=81-100%)
Fc1cc(Cl)cnc1Oc1cccc(F)c1-c1cc(C(F)(F)F)on1 [Compound A25, 3-[2-[(5-chloro-3-fluoro-2-pyridyl)oxy]-6-fluoro-phenyl]-5-(trifluoromethyl)isoxazole]	5 (5=81-100%)	5 (5=81-100%)	5 (5=81-100%)	4 (4=61-80%)	4 (4=61-80%)	5 (5=81-100%)	5 (5=81-100%)	5 (5=81-100%)	5 (5=81-100%)	5 (5=81-100%)	5 (5=81-100%)	5 (5=81-100%)	
N#Cc1cccc(Oc2ncc(Cl)cc2F)c1-n1cc(C(F)(F)F)cn1 [Compound A33, 3-[(5-chloro-3-fluoro-2-pyridyl)oxy]-2-[4-(trifluoromethyl)pyrazol-1-yl]benzonitrile]	5 (5=81-100%)	5 (5=81-100%)	5 (5=81-100%)	5 (5=81-100%)	5 (5=81-100%)	5 (5=81-100%)	4 (4=61-80%)	5 (5=81-100%)	5 (5=81-100%)	5 (5=81-100%)	2 (2=21-40%)	5 (5=81-100%)	
Fc1cccc(Oc2cccc(C(F)(F)F)n2)c1-c1cc(C(F)F)no1 [Compound A47]	1 (1=0-20%)	3 (3=41-60%)	1 (1=0-20%)	1 (1=0-20%)	1 (1=0-20%)	3 (3=41-60%)	1 (1=0-20%)	1 (1=0-20%)	1 (1=0-20%)	1 (1=0-20%)	1 (1=0-20%)	1 (1=0-20%)	
Fc1cc(Cl)cnc1Oc1cccc(F)c1-c1cc(C(F)F)on1 [Compound A30]	5 (5=81-100%)	5 (5=81-100%)	5 (5=81-100%)	5 (5=81-100%)	5 (5=81-100%)	5 (5=81-100%)	5 (5=81-100%)	5 (5=81-100%)	5 (5=81-100%)	5 (5=81-100%)	5 (5=81-100%)	5 (5=81-100%)	
Fc1cc(Cl)cnc1Oc1ccccc1-n1cncn1 [Compound A29]	1 (1=0-20%)	4 (4=61-80%)	2 (2=21-40%)	1 (1=0-20%)	2 (2=21-40%)	4 (4=61-80%)	1 (1=0-20%)	5 (5=81-100%)	4 (4=61-80%)	1 (1=0-20%)	1 (1=0-20%)	3 (3=41-60%)	
Fc1cc(Cl)cnc1Oc1cccc(Br)c1-c1cc(C(F)F)no1 [Compound A44]	5 (5=81-100%)	5 (5=81-100%)	5 (5=81-100%)	5 (5=81-100%)	5 (5=81-100%)	5 (5=81-100%)	5 (5=81-100%)	5 (5=81-100%)	5 (5=81-100%)	5 (5=81-100%)	5 (5=81-100%)	5 (5=81-100%)	
Fc1cc(Cl)cnc1Oc1cccc(F)c1-n1cc(C(F)(F)F)cn1 [Compound A58]	5 (5=81-100%)	5 (5=81-100%)	5 (5=81-100%)	4 (4=61-80%)	5 (5=81-100%)	5 (5=81-100%)	5 (5=81-100%)	5 (5=81-100%)	5 (5=81-100%)	5 (5=81-100%)	5 (5=81-100%)	5 (5=81-100%)	
Fc1cc(C(F)(F)F)cnc1Oc1cccc(Cl)c1-c1cc(C(F)F)no1 [Compound A117]	4 (4=61-80%)	5 (5=81-100%)	4 (4=61-80%)	4 (4=61-80%)	5 (5=81-100%)	4 (4=61-80%)	4 (4=61-80%)	5 (5=81-100%)	5 (5=81-100%)	4 (4=61-80%)	5 (5=81-100%)	2 (2=21-40%)	
